Measurements reported in patent US20230233569A1 (Revolution Medicines, Inc., priority 2020, published 2023).
“And” between values parts separate entries of the source, which are not always exact repeats. Identical values can stand only once. Like-named read-outs stand apart in the source and are kept apart here.

Assays:
NRAS Q61K = NRAS Q61K (Homo sapiens, UniProt P01111+P62937, Q61K); assay: Disruption of BRAF RBD interaction with Ras (FRET / MOA assay, with Cyclophilin A); assay type: biochemical; conditions: NRAS Q61K; read-out: NRAS Q61K FRET data IC50
In short: (§1)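 IC50 reflects compound-driven Ras:Cyclophilin A ternary complex displacing BRAF RBD, read as lowered TR-FRET ratio relative to DMSO after Eu anti-His (10 nM) and APC anti-GST (50 nM) detection for 1.5 h. Prior incubation 3 h, 25° C, with 12.5 nM GMPPNP-loaded Ras, 50 nM BRAF RBD, 25 μM Cyclophilin A; top compound 30 μM.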

NRAS WT = NRAS WT (Homo sapiens, UniProt P01111+P62937); assay: as above; assay type: biochemical; conditions: NRAS WT; read-out: NRAS WT FRET data IC50
In short: as §1

KRAS Q61H = KRAS Q61H (Homo sapiens, UniProt P01116+P62937, Q61H); assay: as above; assay type: biochemical; conditions: KRAS Q61H; read-out: KRAS Q61H FRET data IC50
In short: as §1

NRAS Q61R = NRAS Q61R (Homo sapiens, UniProt P01111+P62937, Q61R); assay: as above; assay type: biochemical; conditions: NRAS Q61R; read-out: NRAS Q61R FRET data IC50
In short: as §1

Capan-1 (K-Ras G12V) = assay: CellTiter-Glo cell viability assay, 5-day treatment; assay type: cell-based; conditions: Homo sapiens, CAPAN-1, 120 h, 5-day treatment; read-out: Capan-1 Cell Viability assay data (K-Ras G12V, IC50)
In short: (§2)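 Five-day compound treatment of plated cells; luminescent read after ~30 min at RT. Percent-of-DMSO data fit to a four-parameter logistic model.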

KRAS G13C = KRAS G13C (Homo sapiens, UniProt P01116+P62937, G13C); assay: Disruption of BRAF RBD interaction with Ras (FRET / MOA assay, with Cyclophilin A); assay type: biochemical
In short: (§3)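 TR-FRET: nucleotide-loaded K-Ras mutant or WT with Cyclophilin A and BRAF RBD, compound 10-point 3-fold from 30 μM final, 3 h at 25° C, then anti-His Eu (10 nM) and anti-GST APC (50 nM) for 1.5 h. Decreased FRET ratio versus DMSO gives IC50.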

KRAS WT = KRAS WT (Homo sapiens, UniProt P01116+P62937); assay: as above; assay type: biochemical
In short: as §3

KRAS G13D = KRAS G13D (Homo sapiens, UniProt P01116+P62937, G13D); assay: as above; assay type: biochemical
In short: as §3

KRAS G12C = KRAS G12C (Homo sapiens, UniProt P01116+P62937, G12C); assay: as above; assay type: biochemical
In short: as §3

KRAS G12S = KRAS G12S (Homo sapiens, UniProt P01116+P62937, G12S); assay: as above; assay type: biochemical
In short: as §3

KRAS G12V = KRAS G12V (Homo sapiens, UniProt P01116+P62937, G12V); assay: as above; assay type: biochemical
In short: as §3

NRAS G12C = NRAS G12C (Homo sapiens, UniProt P01111+P62937, G12C); assay: as above; assay type: biochemical
KRAS G12D = KRAS G12D (Homo sapiens, UniProt P01116+P62937, G12D); assay: as above; assay type: biochemical
In short: as §3

NCI-H358 (K-Ras G12C) = assay: CellTiter-Glo cell viability assay, 5-day treatment; assay type: cell-based; conditions: Homo sapiens, NCI-H358, 120 h, 5-day treatment; read-out: H358 Cell Viability assay data (K-Ras G12C, IC50)
In short: as §2

[1] = read-out: KRAS G13C FRET data, IC50
[2] = KRAS WT, read-out: KRAS WT FRET data IC50
[3] = KRAS G13D, read-out: KRAS G13D FRET data IC50
[4] = read-out: KRAS G12C FRET data, IC50
[5] = read-out: KRAS G12S FRET data, IC50
[6] = KRAS G12V, read-out: KRAS G12V FRET data IC50
[7] = NRAS G12C, read-out: NRAS G12C FRET data IC50
[8] = read-out: KRAS G12D FRET data, IC50
[9] = KRAS WT FRET data IC50, KRAS WT
[10] = KRAS G13D FRET data IC50, KRAS G13D
[11] = KRAS G12V FRET data IC50, KRAS G12V
[12] = NRAS G12C FRET data IC50, NRAS G12C

KRAS WT, sequence (P01116 1-169 isoform P01116-2 limits assumed): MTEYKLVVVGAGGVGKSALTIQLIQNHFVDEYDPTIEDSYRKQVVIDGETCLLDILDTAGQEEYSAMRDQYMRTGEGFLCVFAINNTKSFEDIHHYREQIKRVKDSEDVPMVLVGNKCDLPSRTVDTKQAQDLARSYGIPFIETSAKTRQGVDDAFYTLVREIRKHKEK
KRAS WT, sequence (P62937 whole entry): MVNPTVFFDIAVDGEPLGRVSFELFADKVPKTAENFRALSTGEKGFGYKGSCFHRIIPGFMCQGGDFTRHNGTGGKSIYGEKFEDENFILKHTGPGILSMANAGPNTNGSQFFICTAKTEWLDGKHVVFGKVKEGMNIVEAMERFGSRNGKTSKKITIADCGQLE
NRAS G12C, sequence (P01111 whole entry G12C): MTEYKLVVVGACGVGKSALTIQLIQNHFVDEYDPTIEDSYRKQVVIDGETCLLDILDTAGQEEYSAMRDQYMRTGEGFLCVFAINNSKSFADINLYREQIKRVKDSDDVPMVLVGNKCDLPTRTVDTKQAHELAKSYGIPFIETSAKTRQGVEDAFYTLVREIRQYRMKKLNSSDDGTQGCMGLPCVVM
NRAS G12C, sequence (P62937 whole entry): as the sequence (P62937 whole entry) above
NRAS WT, sequence (P01111 whole entry): as the sequence (P01111 whole entry G12C) above, with C12G counted along it
NRAS WT, sequence (P62937 whole entry): as the sequence (P62937 whole entry) above
KRAS G13D, sequence (P01116 1-169 isoform P01116-2 G13D limits assumed): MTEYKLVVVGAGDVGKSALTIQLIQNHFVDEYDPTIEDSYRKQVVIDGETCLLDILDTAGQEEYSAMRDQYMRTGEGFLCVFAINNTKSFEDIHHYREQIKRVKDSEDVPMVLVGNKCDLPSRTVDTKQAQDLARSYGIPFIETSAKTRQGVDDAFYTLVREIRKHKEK
KRAS G13D, sequence (P62937 whole entry): as the sequence (P62937 whole entry) above
NRAS Q61R, sequence (P01111 whole entry Q61R): as the sequence (P01111 whole entry G12C) above, with C12G, Q61R counted along it
NRAS Q61R, sequence (P62937 whole entry): as the sequence (P62937 whole entry) above
KRAS G13C, sequence (P01116 1-169 isoform P01116-2 G13C): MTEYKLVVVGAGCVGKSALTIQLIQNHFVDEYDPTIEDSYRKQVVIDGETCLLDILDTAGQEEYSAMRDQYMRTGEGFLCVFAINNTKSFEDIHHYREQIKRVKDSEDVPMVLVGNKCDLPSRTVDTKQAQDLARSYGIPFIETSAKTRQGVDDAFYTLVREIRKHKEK
KRAS G13C, sequence (P62937 whole entry): as the sequence (P62937 whole entry) above
KRAS G12S, sequence (P01116 1-169 isoform P01116-2 G12S limits assumed): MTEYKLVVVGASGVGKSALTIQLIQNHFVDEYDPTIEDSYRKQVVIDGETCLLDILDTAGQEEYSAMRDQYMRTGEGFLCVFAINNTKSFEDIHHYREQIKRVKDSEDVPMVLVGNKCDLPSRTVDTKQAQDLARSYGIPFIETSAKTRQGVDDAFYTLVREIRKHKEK
KRAS G12S, sequence (P62937 whole entry): as the sequence (P62937 whole entry) above
KRAS G12D, sequence (P01116 1-169 isoform P01116-2 G12D limits assumed): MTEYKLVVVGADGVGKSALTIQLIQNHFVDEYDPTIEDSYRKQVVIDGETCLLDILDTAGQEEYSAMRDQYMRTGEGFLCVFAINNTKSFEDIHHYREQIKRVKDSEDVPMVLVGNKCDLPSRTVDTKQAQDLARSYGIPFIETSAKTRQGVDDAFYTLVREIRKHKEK
KRAS G12D, sequence (P62937 whole entry): as the sequence (P62937 whole entry) above
KRAS G12V, sequence (P01116 1-169 isoform P01116-2 G12V limits assumed): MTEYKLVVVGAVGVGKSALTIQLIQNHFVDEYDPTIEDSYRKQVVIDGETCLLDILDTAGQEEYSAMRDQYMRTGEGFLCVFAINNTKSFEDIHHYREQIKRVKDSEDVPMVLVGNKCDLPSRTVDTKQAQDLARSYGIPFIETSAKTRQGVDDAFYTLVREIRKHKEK
KRAS G12V, sequence (P62937 whole entry): as the sequence (P62937 whole entry) above
NRAS Q61K, sequence (P01111 whole entry Q61K): as the sequence (P01111 whole entry G12C) above, with C12G, Q61K counted along it
NRAS Q61K, sequence (P62937 whole entry): as the sequence (P62937 whole entry) above
KRAS G12C, sequence (P01116 1-169 isoform P01116-2 G12C): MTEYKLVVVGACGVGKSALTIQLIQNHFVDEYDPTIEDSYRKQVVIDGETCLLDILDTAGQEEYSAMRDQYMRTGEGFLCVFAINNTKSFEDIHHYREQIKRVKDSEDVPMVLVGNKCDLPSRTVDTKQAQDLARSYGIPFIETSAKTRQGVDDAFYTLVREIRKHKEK
KRAS G12C, sequence (P62937 whole entry): as the sequence (P62937 whole entry) above
KRAS Q61H, sequence (P01116 1-169 isoform P01116-2 Q61H limits assumed): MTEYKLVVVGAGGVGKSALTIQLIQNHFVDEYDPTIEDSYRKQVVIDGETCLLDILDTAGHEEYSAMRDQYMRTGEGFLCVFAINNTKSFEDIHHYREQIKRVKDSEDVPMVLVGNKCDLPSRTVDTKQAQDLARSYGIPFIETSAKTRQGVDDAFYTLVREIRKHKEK
KRAS Q61H, sequence (P62937 whole entry): as the sequence (P62937 whole entry) above

SMILES	IC50 (NRAS Q61K) [nM]	IC50 (NRAS WT) [nM]	IC50 (KRAS Q61H) [nM]	IC50 (NRAS Q61R) [nM]	IC50 (KRAS G13C; [1])	IC50 (KRAS WT; [2]) [nM]	IC50 (KRAS G13D; [3])	IC50 (KRAS G12C; [4])	IC50 (KRAS G12S; [5])	IC50 (KRAS G12V; [6]) [nM]	IC50 (NRAS G12C; [7]) [nM]	IC50 (KRAS G12D; [8])	IC50 (NCI-H358 (K-Ras G12C)) [nM]	other results
CCn1c(-c2cccnc2[C@H](C)OC)c2c3cc(ccc31)-c1csc(n1)C[C@H](NC(=O)[C@H](C(C)C)N1CCC3(CCN(S(C)(=O)=O)C3)C1=O)C(=O)N1CCC[C@H](N1)C(=O)OCC(C)(C)C2 (mixture of isomers) [Example A220]	1000 to 10000	1000 to 10000	1000 to 10000	1000 to 10000	–	–	–	–	–	–	–	–	–	IC50 (Capan-1 (K-Ras G12V)): 1000 to 10000 nM
CCn1c(-c2cccnc2[C@H](C)OC)c2c3cc(ccc31)-c1cc(O)cc(c1)C[C@H](NC(=O)[C@H](C1CCCC1)N(C)C(=O)N1CCS(=O)(=NC)CC1)C(=O)N1CCC[C@H](N1)C(=O)OCC(C)(C)C2 [Example A426]	100 to 1000	10 to 100	10 to 100	100 to 1000	10 to 100 nM	10 to 100	10 to 100 nM	10 to 100 nM	100 to 1000 nM	100 to 1000	10 to 100	100 to 1000 nM	–	–
CCn1c(-c2cnccc2COC)c2c3cc(ccc31)-c1cc(O)cc(c1)C[C@H](NC(=O)[C@H](C(C)C)N(C)C(=O)c1ncco1)C(=O)N1CCC[C@H](N1)C(=O)OCC(C)(C)C2 [Example A38]	100 to 1000	100 to 1000	10 to 100	100 to 1000	1000 to 10000 nM	100 to 1000	100 to 1000 nM	100 to 1000 nM	100 to 1000 nM	100 to 1000	100 to 1000	1000 to 10000 nM	1000 to 10000	–
CCn1c(-c2cccnc2[C@H](C)OC)c2c3cc(ccc31)-c1cc(O)cc(c1)C[C@H](NC(=O)C1[C@H]3COC[C@@H]13)C(=O)N1CCC[C@H](N1)C(=O)OCC(C)(C)C2 (stereo partly drawn) [Example A253]	1000 to 10000	100 to 1000	100 to 1000	1000 to 10000	100 to 1000 nM and 1000 to 10000 nM	1000 to 10000	1000 to 10000 nM and > 10000 nM	100 to 1000 nM and 1000 to 10000 nM	1000 to 10000 nM and > 10000 nM	1000 to 10000	1000 to 10000	1000 to 10000 nM and > 10000 nM	–	–
CCn1c(-c2cnccc2COC)c2c3cc(ccc31)-c1cc(O)cc(c1)C[C@H](NC(=O)[C@H](C(C)C)N(C)C(=O)[C@H]1CCN(S(=O)(=O)N3CC(O)C3)C1)C(=O)N1CCC[C@H](N1)C(=O)OCC(C)(C)C2 [Example A37, (2S)—N-[(8S,14S)-22-ethyl-4-hydroxy-21-[4-(methoxymethyl)pyridin-3-yl]-18,18-dimethyl-9,15-dioxo-16-oxa-10,22,28-triazapentacyclo[18.5.2.1^2,6.1^10,14.0^23,27]nonacosa-1(26),2,4,6(29),20,23(27),24-heptaen-8-yl]-2-{1-[(3S)-1-[(3-hydroxyazetidin-1-yl)sulfonyl]pyrrolidin-3-yl]-N-methylformamido}-3-methylbutanamide]	1000 to 10000	100 to 1000	10 to 100	1000 to 10000	–	–	–	–	–	–	–	–	1000 to 10000	IC50 (KRAS G13C; KRAS G13C FRET data, IC50): 100 to 1000 nM; IC50 (KRAS WT; [9]): 100 to 1000 nM; IC50 (KRAS G13D; [10]): 1000 to 10000 nM; IC50 (KRAS G12C; KRAS G12C FRET data, IC50): 100 to 1000 nM; IC50 (KRAS G12S; KRAS G12S FRET data, IC50): 100 to 1000 nM; IC50 (KRAS G12V; [11]): 100 to 1000 nM; IC50 (NRAS G12C; [12]): 100 to 1000 nM; IC50 (KRAS G12D; KRAS G12D FRET data, IC50): > 10000 nM
CCn1c(-c2cnccc2COC)c2c3cc(ccc31)-c1cc(O)cc(c1)C[C@H](NC(=O)[C@H](C(C)C)N(C)S(C)(=O)=O)C(=O)N1CCC[C@H](N1)C(=O)OCC(C)(C)C2 [Example A57, (2S)—N-[(8S,14S)-22-ethyl-4-hydroxy-21-[4-(methoxymethyl)pyridin-3-yl]-18,18-dimethyl-9,15-dioxo-16-oxa-10,22,28-triazapentacyclo[18.5.2.1^2,6.1^10,14.0^23,27]nonacosa-1(26),2,4,6(29),20,23(27),24-heptaen-8-yl]-3-methyl-2-(N-methylmethanesulfonamido)butanamide]	1000 to 10000	1000 to 10000	100 to 1000	1000 to 10000	–	–	–	–	–	–	–	–	1000 to 10000	IC50 (KRAS G13C; KRAS G13C FRET data, IC50): 1000 to 10000 nM; IC50 (KRAS WT; [9]): 1000 to 10000 nM; IC50 (KRAS G13D; [10]): 1000 to 10000 nM; IC50 (KRAS G12C; KRAS G12C FRET data, IC50): 1000 to 10000 nM; IC50 (KRAS G12S; KRAS G12S FRET data, IC50): 1000 to 10000 nM; IC50 (KRAS G12V; [11]): 1000 to 10000 nM; IC50 (NRAS G12C; [12]): 1000 to 10000 nM; IC50 (KRAS G12D; KRAS G12D FRET data, IC50): > 10000 nM
CCn1c(-c2cccnc2[C@H](C)OC)c2c3cc(ccc31)-c1cc(O)cc(c1)C[C@H](NC(=O)[C@H](C(C)C)N(C)C(=O)[C@H]1[C@@H]3CNC[C@@H]31)C(=O)N1CCC[C@H](N1)C(=O)OCC(C)(C)C2 [Example A163]	1000 to 10000	100 to 1000	100 to 1000	1000 to 10000	–	–	–	–	–	–	–	–	–	–
CCn1c(-c2cccnc2[C@H](C)OC)c2c3cc(ccc31)-c1csc(n1)C[C@H](NC(=O)[C@H](C(C)C)N(C)C(=O)N1CC(OC)C1)C(=O)N1CCC[C@H](N1)C(=O)OCC(C)(C)C2 (racemic) [Example A205]	10 to 100	100 to 1000	10 to 100	100 to 1000	–	–	–	–	–	–	–	–	< 10	–
CCn1c(-c2cc(N3CCN(C)CC3)cnc2[C@H](C)OC)c2c3cc(ccc31)-c1csc(n1)C[C@H](NC(C)=O)C(=O)N1CCC[C@H](N1)C(=O)OCC(C)(C)C2 (atropisomer, axis not shown) [Example A340]	> 10000	> 10000	> 10000	> 10000	> 10000 nM	> 10000	> 10000 nM	> 10000 nM	> 10000 nM	> 10000	> 10000	> 10000 nM	–	–
CCn1c(-c2cc(N3CCN(C)CC3)cnc2[C@H](C)OC)c2c3cc(ccc31)-c1csc(n1)C[C@H](NC(C)=O)C(=O)N1CCC[C@H](N1)C(=O)OCC(C)(C)C2 [Example A321]	100 to 1000	100 to 1000	100 to 1000	100 to 1000	100 to 1000 nM	100 to 1000	100 to 1000 nM	10 to 100 nM	100 to 1000 nM	100 to 1000	10 to 100	100 to 1000 nM	100 to 1000	–
